Measurements reported in US10597388B2, “Pyridazinone herbicides” (FMC CORPORATION, priority 2014, dated 2020).

Legend:
Assay type in all cases: in vivo
[1] = tested on: wheat, spring (spring wheat, Triticum aestivum); assay: Test D controlled growth environment herbicide test, pre- and postemergence; conditions: for Wheat, Spring plant response rating / Plant response rating (scale of 0 to 100), Wheat, Spring: 31 g ai/ha
Method in brief: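 Rating is visual, 0–100 scale (100 = complete control), made against untreated plants 14–21 d after treatment in controlled growth conditions. Postemergence sprays went onto 1- to 4-leaf plants in peat medium; preemergence sprays onto silt loam after sowing; formulation included a surfactant.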

soybean (Glycine max) = assay: Test E greenhouse herbicide test, pre- and postemergence
Method in brief: (§1)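 Compounds in a non-phytotoxic solvent mixture with surfactant were applied preemergence to seeds in silt loam soil and postemergence to 2-18 cm plants (1- to 4-leaf stage) in peat-based medium. After 14 to 21 d in a greenhouse, injury was rated visually against untreated controls on a 0 (no effect) to 100 (complete control) scale.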

[2] = tested on: field bindweed (Convolvulus arvensis); assay: as above
Method in brief: as §1

[3] = tested on: horseweed (Conyza canadensis); assay: as above
Method in brief: as §1

[4] = tested on: panicum, fall (fall panicum, Panicum dichotomiflorum); assay: as above
Method in brief: as §1

[5] = tested on: beggarticks (hairy beggarticks, Bidens pilosa); assay: as above
Method in brief: as §1

[6] = tested on: dayflower (Virginia (VA) dayflower, Commelina virginica); assay: as above
Method in brief: as §1

[7] = tested on: lambsquarters (Chenopodium album); assay: as above; conditions: Preemergence
Method in brief: as §1

[8] = tested on: arrowleaf sida (Sida rhombifolia); assay: as above
Method in brief: as §1

[9] = tested on: momingglory (Ipomoea coccinea); assay: as above; conditions: Preemergence
Method in brief: as §1

[10] = Postemergence, scale 0 to 100 (0 no effect, 100 complete control)
[11] = Postemergence, 125 g ai/ha, visual rating on scale 0 (no effect) to 100 (complete control), 14 to 21 d
[12] = Postemergence, 250 g ai/ha, scale 0 to 100 (0 no effect, 100 complete control)
[13] = Preemergence, 62 g ai/ha, scale 0 to 100 (0 no effect, 100 complete control)
[14] = Preemergence, 125 g ai/ha, scale 0 to 100 (0 no effect, 100 complete control)
[15] = Preemergence, 250 g ai/ha, scale 0 to 100 (0 no effect, 100 complete control)
[16] = postemergence, 62 g ai/ha, scale 0 to 100, 0 no effect, 100 complete control
[17] = 62 g ai/ha, Preemergence, scale 0 to 100 (0 no effect, 100 complete control)
[18] = 125 g ai/ha, Postemergence, scale 0 to 100 (0 no effect, 100 complete control)
[19] = 125 g ai/ha, Preemergence, scale 0 to 100 (0 no effect, 100 complete control)
[20] = 250 g ai/ha, Postemergence, scale 0 to 100 (0 no effect, 100 complete control)
[21] = Postemergence, 31 g ai/ha, visual, scale 0 no effect to 100 complete control
[22] = Preemergence, 31 g ai/ha, scale 0 to 100, 0 no effect, 100 complete control
[23] = Preemergence, 250 g ai/ha, visual, scale 0 no effect to 100 complete control
[24] = 62 g ai/ha, Postemergence, scale 0 to 100 (0 no effect, 100 complete control)
[25] = 62 g ai/ha, scale 0 to 100 (0 no effect, 100 complete control)
[26] = 125 g ai/ha, scale 0 to 100 (0 no effect, 100 complete control)
[27] = 31 g ai/ha, scale 0 to 100, 0 no effect, 100 complete control
[28] = 250 g ai/ha, visual, scale 0 no effect to 100 complete control
[29] = Preemergence, 125 g ai/ha, visual, scale 0 no effect to 100 complete control
[30] = 125 g ai/ha, visual, scale 0 no effect to 100 complete control

COC(=O)Oc1c(C)nn(C)c(=O)c1-c1c(C)sc2c(C)cc(C)cc12 [Compound 81]
Wheat, Spring plant response rating [1, 10]: 0
Plant response rating, Wheat, Spring [1, 11]: 0
Plant response rating, Wheat, Spring [1, 12]: 20
Plant response rating (scale of 0 to 100), Wheat, Spring ([1]; Preemergence): 0
Plant response rating, Wheat, Spring [1, 13]: 0
Plant response rating, Wheat, Spring [1, 14]: 0
Plant response rating, Wheat, Spring [1, 15]: 40
Plant response rating, Wheat, Spring [1, 16]: 0
Plant response rating, Soybean (soybean (Glycine max); [17]): 0
Plant response rating, Soybean (soybean (Glycine max); [18]): 0
Plant response rating, Soybean (soybean (Glycine max); [19]): 0
Plant response rating, Soybean (soybean (Glycine max); [20]): 10
Plant response rating, Soybean (soybean (Glycine max); [21]): 0
Plant response rating, Soybean (soybean (Glycine max); [22]): 0
Plant response rating, Soybean (soybean (Glycine max); [23]): 0
Plant response rating, Field Bindweed [2, 24]: 65
Plant response rating, Field Bindweed [2, 17]: 0
Plant response rating, Field Bindweed [2, 18]: 75
Plant response rating, Field Bindweed [2, 19]: 75
Plant response rating, Field Bindweed [2, 20]: 85
Plant response rating, Field Bindweed [2, 21]: 60
Plant response rating, Field Bindweed [2, 22]: 0
Plant response rating, Field Bindweed [2, 23]: 100
Plant response rating, Horseweed [3, 24]: 75
Plant response rating, Horseweed [3, 17]: 100
Plant response rating, Horseweed [3, 18]: 65
Plant response rating, Horseweed [3, 19]: 100
Plant response rating, Horseweed [3, 20]: 85
Plant response rating, Horseweed [3, 21]: 50
Plant response rating, Horseweed [3, 22]: 90
Plant response rating, Horseweed [3, 23]: 100
Plant response rating, Panicum, Fall [4, 24]: 80
Plant response rating, Panicum, Fall [4, 17]: 100
Plant response rating, Panicum, Fall [4, 18]: 85
Plant response rating, Panicum, Fall [4, 19]: 100
Plant response rating, Panicum, Fall [4, 20]: 90
Plant response rating, Panicum, Fall [4, 21]: 85
Plant response rating, Panicum, Fall [4, 22]: 98
Plant response rating, Panicum, Fall [4, 23]: 100
Plant response rating, Beggarticks [5, 24]: 100
Plant response rating, Beggarticks [5, 17]: 100
Plant response rating, Beggarticks [5, 18]: 100
Plant response rating, Beggarticks [5, 19]: 100
Plant response rating, Beggarticks [5, 20]: 100
Plant response rating, Beggarticks [5, 21]: 90
Plant response rating, Beggarticks [5, 22]: 80
Plant response rating, Beggarticks [5, 23]: 100
Plant response rating, Dayflower, VA [6, 24]: 70
Plant response rating, Dayflower, VA [6, 17]: 15
Plant response rating, Dayflower, VA [6, 18]: 80
Plant response rating, Dayflower, VA [6, 19]: 35
Plant response rating, Dayflower, VA [6, 20]: 80
Plant response rating, Dayflower, VA [6, 21]: 60
Plant response rating, Dayflower, VA [6, 22]: 10
Plant response rating, Dayflower, VA [6, 23]: 65
Plant response rating, Lambsquarters [7, 25]: 100
Plant response rating, Lambsquarters [7, 26]: 100
Plant response rating, Lambsquarters [7, 27]: 98
Plant response rating, Lambsquarters [7, 28]: 100
Plant response rating, Arrowleaf Sida [8, 24]: 40
Plant response rating, Arrowleaf Sida [8, 17]: 60
Plant response rating, Arrowleaf Sida [8, 18]: 30
Plant response rating, Arrowleaf Sida [8, 19]: 70
Plant response rating, Arrowleaf Sida [8, 20]: 60
Plant response rating, Arrowleaf Sida [8, 21]: 40
Plant response rating, Arrowleaf Sida [8, 22]: 40
Plant response rating, Arrowleaf Sida [8, 23]: 70
Plant response rating, Morningglory [9, 25]: 85
Plant response rating, Morningglory [9, 26]: 100
Plant response rating, Morningglory [9, 27]: 60
Plant response rating, Morningglory [9, 28]: 100

Cc1ccc2ccccc2c1-c1c(O)c(C)nn(C)c1=O [Compound 59]
Wheat, Spring plant response rating [1, 10]: 40
Plant response rating, Wheat, Spring [1, 11]: 70
Plant response rating, Wheat, Spring [1, 12]: 80
Plant response rating (scale of 0 to 100), Wheat, Spring ([1]; Preemergence): 35
Plant response rating, Wheat, Spring [1, 13]: 65
Plant response rating, Wheat, Spring [1, 14]: 80
Plant response rating, Wheat, Spring [1, 15]: 85
Plant response rating, Wheat, Spring [1, 16]: 45
Plant response rating, Soybean (soybean (Glycine max); [17]): 30
Plant response rating, Soybean (soybean (Glycine max); [19]): 30
Plant response rating, Soybean (soybean (Glycine max); [22]): 35
Plant response rating, Soybean (soybean (Glycine max); [23]): 70
Plant response rating, Field Bindweed [2, 17]: 75
Plant response rating, Field Bindweed [2, 22]: 65
Plant response rating, Field Bindweed [2, 29]: 95
Plant response rating, Field Bindweed [2, 23]: 95
Plant response rating, Horseweed [3, 17]: 100
Plant response rating, Horseweed [3, 22]: 100
Plant response rating, Horseweed [3, 29]: 100
Plant response rating, Horseweed [3, 23]: 100
Plant response rating, Panicum, Fall [4, 17]: 98
Plant response rating, Panicum, Fall [4, 19]: 100
Plant response rating, Panicum, Fall [4, 22]: 95
Plant response rating, Panicum, Fall [4, 23]: 100
Plant response rating, Beggarticks [5, 17]: 100
Plant response rating, Beggarticks [5, 22]: 100
Plant response rating, Beggarticks [5, 29]: 100
Plant response rating, Beggarticks [5, 23]: 100
Plant response rating, Dayflower, VA [6, 17]: 40
Plant response rating, Dayflower, VA [6, 22]: 10
Plant response rating, Dayflower, VA [6, 29]: 80
Plant response rating, Dayflower, VA [6, 23]: 80
Plant response rating, Lambsquarters [7, 25]: 100
Plant response rating, Lambsquarters [7, 27]: 100
Plant response rating, Lambsquarters [7, 30]: 100
Plant response rating, Lambsquarters [7, 28]: 100
Plant response rating, Arrowleaf Sida [8, 17]: 95
Plant response rating, Arrowleaf Sida [8, 22]: 80
Plant response rating, Arrowleaf Sida [8, 29]: 98
Plant response rating, Arrowleaf Sida [8, 23]: 98
Plant response rating, Morningglory [9, 25]: 95
Plant response rating, Morningglory [9, 26]: 98
Plant response rating, Morningglory [9, 27]: 75
Plant response rating, Morningglory [9, 28]: 100

CCC(=O)Oc1c(C)nn(C)c(=O)c1-c1c(C)sc2c(C)cc(C)cc12 [Compound 28]
Wheat, Spring plant response rating [1, 10]: 0
Plant response rating, Wheat, Spring [1, 11]: 10
Plant response rating, Wheat, Spring [1, 12]: 20
Plant response rating (scale of 0 to 100), Wheat, Spring ([1]; Preemergence): 0
Plant response rating, Wheat, Spring [1, 13]: 0
Plant response rating, Wheat, Spring [1, 14]: 5
Plant response rating, Wheat, Spring [1, 15]: 25
Plant response rating, Wheat, Spring [1, 16]: 5
Plant response rating, Soybean (soybean (Glycine max); [17]): 0
Plant response rating, Soybean (soybean (Glycine max); [18]): 50
Plant response rating, Soybean (soybean (Glycine max); [19]): 0
Plant response rating, Soybean (soybean (Glycine max); [20]): 60
Plant response rating, Soybean (soybean (Glycine max); [22]): 0
Plant response rating, Soybean (soybean (Glycine max); [23]): 0
Plant response rating, Field Bindweed [2, 17]: 0
Plant response rating, Field Bindweed [2, 18]: 60
Plant response rating, Field Bindweed [2, 20]: 80
Plant response rating, Field Bindweed [2, 22]: 0
Plant response rating, Field Bindweed [2, 29]: 90
Plant response rating, Field Bindweed [2, 23]: 75
Plant response rating, Horseweed [3, 17]: 100
Plant response rating, Horseweed [3, 18]: 80
Plant response rating, Horseweed [3, 20]: 80
Plant response rating, Horseweed [3, 22]: 100
Plant response rating, Horseweed [3, 29]: 100
Plant response rating, Horseweed [3, 23]: 98
Plant response rating, Panicum, Fall [4, 17]: 95
Plant response rating, Panicum, Fall [4, 18]: 70
Plant response rating, Panicum, Fall [4, 19]: 98
Plant response rating, Panicum, Fall [4, 20]: 90
Plant response rating, Panicum, Fall [4, 22]: 90
Plant response rating, Panicum, Fall [4, 23]: 100
Plant response rating, Beggarticks [5, 17]: 100
Plant response rating, Beggarticks [5, 18]: 100
Plant response rating, Beggarticks [5, 20]: 100
Plant response rating, Beggarticks [5, 22]: 100
Plant response rating, Beggarticks [5, 29]: 100
Plant response rating, Beggarticks [5, 23]: 100
Plant response rating, Dayflower, VA [6, 17]: 10
Plant response rating, Dayflower, VA [6, 18]: 70
Plant response rating, Dayflower, VA [6, 20]: 80
Plant response rating, Dayflower, VA [6, 22]: 5
Plant response rating, Dayflower, VA [6, 29]: 65
Plant response rating, Dayflower, VA [6, 23]: 70
Plant response rating, Lambsquarters [7, 25]: 100
Plant response rating, Lambsquarters [7, 27]: 100
Plant response rating, Lambsquarters [7, 30]: 100
Plant response rating, Lambsquarters [7, 28]: 98
Plant response rating, Arrowleaf Sida [8, 17]: 0
Plant response rating, Arrowleaf Sida [8, 18]: 60
Plant response rating, Arrowleaf Sida [8, 20]: 60
Plant response rating, Arrowleaf Sida [8, 29]: 50
Plant response rating, Arrowleaf Sida [8, 23]: 70
Plant response rating, Morningglory [9, 25]: 90
Plant response rating, Morningglory [9, 26]: 95
Plant response rating, Morningglory [9, 27]: 50
Plant response rating, Morningglory [9, 28]: 100
